In US20100255089A1, “Pharmaceutical Compositions and Methods of Using Same” (priority 2006, published 2010) one finds solubility data, which are given here for 1 compound.

This series is described as follows: physchem. As to conditions: simulated gastric fluid.

Procedure: In an uncapped vial, one part of the compound of Formula I is mixed with three, four, six, or nine parts polyvinylpyrrolidone (PVP-25/Kollidon 25), respectively. The mixture is dissolved in a sufficient amount of a mixture of acetone and ethanol, until all powders were in solution. The uncapped vial is placed into a vacuum oven set at 40° C., and let dry for at least 24 hours.
After that treatment, an amorphous state of the powder is achieved, which could be identified, e.g. by X-ray diffraction measurements or by determination of the solubility.

In turn, `Cc1cc(C)c2c3ccccc3n(Cc3ccc([C@@H](C(=O)N[C@@H](CO)c4ccccc4)C4CCCC4)cc3)c2n1` [compound of Formula I, (2S)-2-cyclopentyl-2-(4-((2,4-dimethyl-9H-pyrido(2,3-B)indol-9-yl)methyl)-phenyl)-N-((1R)-2-hydroxy-1-phenylethyl)acetamide] displayed a solubility of 0.1 µg/mL.
